Measurements as given in publication PMC7138307 (PLoS ONE, 2020).
“Also recorded” adds a separate entry of the source.

Assays:
[1] = Pharmacokinetic experiment, free drug levels in mouse; assay type: in vivo
Method: In vitro plasma and brain protein binding values were generated via the Rapid Equilibrium Dialysis method. The compound of interest was incubated in K2EDTA mouse plasma and rat brain homogenate (homogenized 1:7 (w:v) in 1xPBS) purchased from BioIVT, opposite a buffered compartment of 100mM Potassium phosphate/150mM Sodium chloride, pH 7.4, at 1uM for 4hr and 6hr respectively. […] Free fractions (fu) were then calculated by comparing peak-area ratios of matrix and buffered compartments.
In vivo pharmacokinetic studies were conducted in accordance with Biogen IACUC guidelines in 20-25g C57BL/6 mice purchased from Charles River Labs. A total of 9 mice, split into 3 groups (A,B,C), were dosed subcutaneously at 30mg/kg (3mg/mL; 10mL/kg) in a vehicle of 20% Captisol. […] Mouse brains were harvested for total drug concentration measurement, placed into MP Biomedicals Lysing Matrix D tubes, and stored at -80°C, along with plasma samples to await quantitative analysis.
Total drug concentration in plasma and brain tissue was measured via well-established bioanalytical extraction (protein precipitation) and detection methods (LC-MS/MS). […] Reconstituted extracts were then analyzed via LC-MS/MS (AB Sciex 5500) utilizing a binary HPLC setup (Shimadzu LC-20ADvp) and reverse-phase chromatography gradient (ACE 3 C18-AR). […]

tau phosphorylation = test: Isoflurane induced hypothermia tau phosphorylation in C57Bl/6 mice (western blot of cortex); assay type: in vivo, mouse
Source text: Under basal conditions, tau phosphorylation is tightly regulated by opposing kinase and phosphatase activities. In mice, isoflurane induced hypothermia causes a dramatic increase in tau phosphorylation through the temperature dependent inhibition of PP2A [40]. In the current experiment, we used isoflurane induced hypothermia in C57Bl/6 mice to increase tau phosphorylation in order to test the effects of TTBK1 inhibition. By using wild-type mice we ensured that both the levels of tau and tau kinases were at endogenous levels. […] Based on our in vitro potency assays and pharmacokinetic parameters, the highest dose used (75 mg/kg) was projected to achieve an IC80 of TTBK1 inhibition for the one hour of hypothermia treatment (S3 Fig). […] This further confirms that S422, a site implicated in the early stages of neurofibrillary tangle formation in disease, is likely solely phosphorylated by TTBK1 in the brain.
Fig 6 Acute TTBK1 inhibition reduces tau phosphorylation at disease relevant sites in vivo. […] Phosphorylation signal was normalized to the level of total tau in each sample. Data is represented as the mean +/- SEM. For each phospho-epitope, treatment significance was determined first by one-way ANOVA between all groups; For each dose group, Tukey’s comparison was used to determine significance versus the Vehicle treated control. (B) Correlation within each brain sample between the level of tau phosphorylation at S422 and the measured concentration of free drug (R^2 = 0.4254; p = 0.0569).
Samples were lysed in Pierce RIPA lysis and extraction buffer (Thermo Fisher Scientific, Waltham, MA) supplemented with 1% Halt protease and phosphatase inhibitor cocktail (Thermo Fisher Scientific, Waltham, MA) and centrifuged at 14000 x g for 20 min at 4°C to clear the lysate. Protein concentrations were determined using the Direct Detect Infrared Spectrometer (EMD Millipore Corp., Burlington, MA) and 10μg of each sample was denatured in 6X SDS sample buffer (Boston Bioproducts, Ashland, MA) for 7 minutes at 90°C. Proteins were loaded into a Criterion 7.5% tris-glycine gel (Bio-Rad, Hercules, CA) and separated by SDS-PAGE at 120V for 120 minutes. The gel was transferred to an IBlot2 nitrocellulose membrane (Invitrogen, Carlsbad, CA), blocked with TBST blocking buffer (Li-cor Biosciences, Lincoln, NE) for 1 hour, and washed three times with TBST. The membrane was probed with primary antibodies (1:1000 dilution) in antibody dilution buffer (1:1 TBST blocking buffer and 1X TBST) overnight at 4°C. The following antibodies were used for immunoblotting: TTBK1 (Cat# PA5-20686, Invitrogen, Carlsbad, CA), Tau-5 (Cat# ab80579, Abcam, Cambridge, UK), phospho-Tau S422 (Cat# ab79415, Abcam, Cambridge, UK), S198 (Cat# ab79540, Abcam, Cambridge, UK), AT8 S202/T205 (Cat# MN1020, Invitrogen, Carlsbad, CA), S214 (Cat# ab170892, Abcam, Cambridge, UK), AT180 T231 (Cat# MN1040, Invitrogen, Carlsbad, CA), S262 (Cat# ab131354, Abcam, Cambridge, UK), S356 (Cat# ab75603, Abcam, Cambridge, UK), S396 (Cat# ab109390, Abcam, Cambridge, UK), GAPDH (Cat# 5174S, Cell Signaling Technology, Danvers, MA), and β-actin (Cat# 926–42212, Li-cor Biosciences, Lincoln, NE). The blot was then washed in triplicate with TBST and incubated for 1 hour with secondary antibody (1:10,000 dilution of IRDye 800 anti-mouse IgG and IRDye 680 anti-rabbit IgG, Li-cor Biosciences, Lincoln, NE) in antibody dilution buffer. After a final triplicate wash with TBST, the blot was visualized using the Odyssey CLx imaging system (Li-cor Biosciences, Lincoln, NE).
Seven-week-old male C576Bl/6 mice were used for all hypothermia experiments (Charles River Laboratories, Wilmington, MA). Hypothermia was induced by exposure to vaporized isoflurane in an anesthetic induction chamber attached to a V-1 Tabletop Anesthesia System (VetEquip, Inc., Livermore, CA). The mice remained in the chamber for 60 minutes with a constant isoflurane concentration of 2%. […]

PIP4K2C = target: T1, PIP4K2C (Mus musculus, UniProt Q91XU3); test: Ex vivo KiNativ ATP/ADP probe competition in mouse cortical brain lysates; assay type: binding; conditions: labeling site ATP
T1 construct: from tissue; host or cells: mouse cortical brain lysate
T1 sequence (Q91XU3 1-421): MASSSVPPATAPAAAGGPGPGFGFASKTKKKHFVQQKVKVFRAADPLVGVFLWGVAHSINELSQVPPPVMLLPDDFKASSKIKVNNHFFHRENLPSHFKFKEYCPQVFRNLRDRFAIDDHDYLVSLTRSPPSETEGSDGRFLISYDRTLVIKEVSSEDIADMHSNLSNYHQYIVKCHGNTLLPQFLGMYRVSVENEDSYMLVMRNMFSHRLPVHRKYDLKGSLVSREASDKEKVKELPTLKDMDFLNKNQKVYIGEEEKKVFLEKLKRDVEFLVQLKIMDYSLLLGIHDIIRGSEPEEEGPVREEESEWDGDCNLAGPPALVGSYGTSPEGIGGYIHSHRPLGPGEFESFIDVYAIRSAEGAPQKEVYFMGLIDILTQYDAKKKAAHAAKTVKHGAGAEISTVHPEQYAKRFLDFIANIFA

MAP4K5 = target: T2, MAP4K5 (Mus musculus, UniProt Q8BPM2); test: as above; assay type: binding; conditions: NVHTGELAAVKIIK, Lys1
T2 construct: from tissue; host or cells: mouse cortical brain lysate

TAO1, TAO3 = test: as above; assay type: binding; conditions: DIKAGNILLTEPGQVK, Lys2
MLK2 = target: T3, MLK2 (Mus musculus, UniProt Q66L42); test: as above; assay type: binding; conditions: DLKSINILILEAIENHNLADTVLK; Lys2; ATP probe
T3 construct: from tissue; host or cells: mouse cortical brain lysate

PIP5K3 = target: T4, PIP5K3 (Mus musculus, UniProt Q9Z1T6); test: as above; assay type: binding; conditions: GGKSGAAFYATEDDRFILK, labeling site ATP
T4 construct: homogenized brain lysates were labeled with Desthiobiotin-ADP-acyl phosphate probe; from tissue; host or cells: mouse cortical brain lysate

CK1d, CK1e = test: as above; assay type: binding; conditions: DVKPDNFLMGLGKK; Lys2; ATP probe

T4 sequence (Q9Z1T6 whole entry): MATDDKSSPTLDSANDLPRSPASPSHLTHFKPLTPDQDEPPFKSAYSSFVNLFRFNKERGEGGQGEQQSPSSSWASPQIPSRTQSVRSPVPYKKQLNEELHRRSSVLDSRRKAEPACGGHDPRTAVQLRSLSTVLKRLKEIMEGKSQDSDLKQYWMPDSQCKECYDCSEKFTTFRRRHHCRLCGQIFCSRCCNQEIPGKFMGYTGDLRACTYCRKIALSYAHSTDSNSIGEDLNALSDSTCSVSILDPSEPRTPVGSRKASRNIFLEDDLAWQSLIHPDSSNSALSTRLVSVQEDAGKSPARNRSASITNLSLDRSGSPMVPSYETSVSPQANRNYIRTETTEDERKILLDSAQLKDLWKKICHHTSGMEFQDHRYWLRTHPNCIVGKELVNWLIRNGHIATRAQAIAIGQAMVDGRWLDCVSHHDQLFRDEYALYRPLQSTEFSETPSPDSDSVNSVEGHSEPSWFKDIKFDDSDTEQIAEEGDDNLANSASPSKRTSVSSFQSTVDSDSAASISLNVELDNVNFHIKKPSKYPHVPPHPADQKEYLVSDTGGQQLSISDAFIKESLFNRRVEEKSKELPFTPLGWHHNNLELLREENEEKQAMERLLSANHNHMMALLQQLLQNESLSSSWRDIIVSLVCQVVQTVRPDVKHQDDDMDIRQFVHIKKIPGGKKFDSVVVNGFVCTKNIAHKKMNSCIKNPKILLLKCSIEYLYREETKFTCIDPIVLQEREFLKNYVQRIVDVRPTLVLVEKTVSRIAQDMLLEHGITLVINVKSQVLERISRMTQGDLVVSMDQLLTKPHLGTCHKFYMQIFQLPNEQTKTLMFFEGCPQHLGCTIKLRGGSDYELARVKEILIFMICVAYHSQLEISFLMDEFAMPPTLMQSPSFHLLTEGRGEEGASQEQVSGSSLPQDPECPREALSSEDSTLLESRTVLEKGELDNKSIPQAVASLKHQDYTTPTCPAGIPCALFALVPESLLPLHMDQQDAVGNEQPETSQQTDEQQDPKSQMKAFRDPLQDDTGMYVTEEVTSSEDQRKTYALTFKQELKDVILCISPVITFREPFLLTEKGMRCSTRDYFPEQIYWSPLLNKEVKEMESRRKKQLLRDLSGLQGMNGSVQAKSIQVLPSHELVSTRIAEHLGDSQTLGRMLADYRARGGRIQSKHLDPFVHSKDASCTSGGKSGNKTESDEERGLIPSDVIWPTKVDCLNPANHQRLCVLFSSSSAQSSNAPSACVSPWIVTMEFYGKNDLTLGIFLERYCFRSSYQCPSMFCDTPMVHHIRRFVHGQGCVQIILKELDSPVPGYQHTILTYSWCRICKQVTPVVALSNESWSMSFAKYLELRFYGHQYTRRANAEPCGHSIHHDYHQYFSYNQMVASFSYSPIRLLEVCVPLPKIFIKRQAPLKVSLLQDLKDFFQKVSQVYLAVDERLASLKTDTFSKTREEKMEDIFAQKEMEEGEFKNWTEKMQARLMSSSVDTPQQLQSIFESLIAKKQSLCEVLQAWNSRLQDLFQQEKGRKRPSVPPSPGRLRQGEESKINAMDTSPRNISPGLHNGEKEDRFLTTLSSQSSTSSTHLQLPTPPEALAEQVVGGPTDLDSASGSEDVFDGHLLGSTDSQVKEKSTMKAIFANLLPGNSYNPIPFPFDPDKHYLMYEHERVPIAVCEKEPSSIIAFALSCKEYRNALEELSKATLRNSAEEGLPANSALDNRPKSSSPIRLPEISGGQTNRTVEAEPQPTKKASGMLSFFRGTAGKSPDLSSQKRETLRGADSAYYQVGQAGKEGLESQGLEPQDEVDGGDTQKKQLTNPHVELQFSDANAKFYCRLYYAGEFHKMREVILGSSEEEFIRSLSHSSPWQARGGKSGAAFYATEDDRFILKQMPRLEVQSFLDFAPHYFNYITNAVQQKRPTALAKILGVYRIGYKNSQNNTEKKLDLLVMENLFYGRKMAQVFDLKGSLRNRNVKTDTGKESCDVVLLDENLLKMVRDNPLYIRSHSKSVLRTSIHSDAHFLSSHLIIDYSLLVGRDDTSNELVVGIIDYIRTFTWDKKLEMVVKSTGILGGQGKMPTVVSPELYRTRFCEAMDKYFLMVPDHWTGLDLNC
T2 sequence (Q8BPM2 whole entry): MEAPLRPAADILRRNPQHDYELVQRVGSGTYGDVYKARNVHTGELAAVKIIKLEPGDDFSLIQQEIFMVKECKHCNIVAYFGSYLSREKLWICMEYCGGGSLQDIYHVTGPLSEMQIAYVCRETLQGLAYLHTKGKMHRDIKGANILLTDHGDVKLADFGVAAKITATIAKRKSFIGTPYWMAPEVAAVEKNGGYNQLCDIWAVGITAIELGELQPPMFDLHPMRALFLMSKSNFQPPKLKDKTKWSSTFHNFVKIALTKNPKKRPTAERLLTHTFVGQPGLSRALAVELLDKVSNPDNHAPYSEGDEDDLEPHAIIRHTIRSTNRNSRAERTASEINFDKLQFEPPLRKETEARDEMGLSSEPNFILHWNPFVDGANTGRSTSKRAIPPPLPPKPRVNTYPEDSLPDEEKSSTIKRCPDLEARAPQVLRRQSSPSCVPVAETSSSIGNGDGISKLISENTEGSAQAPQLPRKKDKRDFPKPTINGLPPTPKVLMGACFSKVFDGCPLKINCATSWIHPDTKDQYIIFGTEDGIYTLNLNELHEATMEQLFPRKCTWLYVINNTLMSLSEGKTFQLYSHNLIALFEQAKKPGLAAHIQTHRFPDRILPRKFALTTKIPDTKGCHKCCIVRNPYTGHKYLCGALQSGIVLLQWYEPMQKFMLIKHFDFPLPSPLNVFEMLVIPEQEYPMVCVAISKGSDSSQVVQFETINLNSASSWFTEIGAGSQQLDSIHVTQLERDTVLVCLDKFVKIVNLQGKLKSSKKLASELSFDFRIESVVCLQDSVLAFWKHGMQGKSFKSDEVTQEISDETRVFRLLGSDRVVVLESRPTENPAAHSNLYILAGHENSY
T3 sequence (Q66L42 whole entry): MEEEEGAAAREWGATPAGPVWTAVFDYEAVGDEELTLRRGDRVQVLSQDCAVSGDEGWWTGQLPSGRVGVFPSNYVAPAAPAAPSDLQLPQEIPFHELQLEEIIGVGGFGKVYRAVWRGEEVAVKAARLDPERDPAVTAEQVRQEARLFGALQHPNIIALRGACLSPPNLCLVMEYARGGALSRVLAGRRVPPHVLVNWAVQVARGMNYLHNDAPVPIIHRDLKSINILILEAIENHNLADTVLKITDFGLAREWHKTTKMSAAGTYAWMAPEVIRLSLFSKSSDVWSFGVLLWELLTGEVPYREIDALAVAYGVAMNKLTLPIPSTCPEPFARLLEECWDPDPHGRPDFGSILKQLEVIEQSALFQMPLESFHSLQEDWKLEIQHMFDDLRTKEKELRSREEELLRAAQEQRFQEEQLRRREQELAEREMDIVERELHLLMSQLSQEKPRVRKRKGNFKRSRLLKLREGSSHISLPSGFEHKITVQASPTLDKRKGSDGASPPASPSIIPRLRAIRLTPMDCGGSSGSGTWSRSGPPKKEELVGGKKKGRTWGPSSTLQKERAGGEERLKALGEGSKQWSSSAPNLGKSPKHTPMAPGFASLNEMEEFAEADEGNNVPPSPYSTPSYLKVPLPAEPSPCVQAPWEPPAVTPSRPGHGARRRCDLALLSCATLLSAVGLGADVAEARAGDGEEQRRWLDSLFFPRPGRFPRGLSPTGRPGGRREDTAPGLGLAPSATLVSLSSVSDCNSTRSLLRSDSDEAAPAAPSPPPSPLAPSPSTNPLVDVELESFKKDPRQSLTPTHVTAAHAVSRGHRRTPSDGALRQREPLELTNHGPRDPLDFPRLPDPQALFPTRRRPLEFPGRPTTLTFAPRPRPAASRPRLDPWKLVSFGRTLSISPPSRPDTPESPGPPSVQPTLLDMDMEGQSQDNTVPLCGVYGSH

With `CCC(C)(O)C#Cc1cc2c(ccn2-c2ccnc(N)n2)cn1` (stereo not drawn) [BIIB-TTBK1i] the clearance rate [1] was “rapid”, the “average reduction in tau phosphorylation at S422” value (tau phosphorylation; 25mg/kg I.P., one hour, p = 0.0213 vs Vehicle) was 60% and the “hypothermia induced tau phosphorylation at S422” value (tau phosphorylation; 50mg/kg I.P., one hour, p = 0.0005 vs Vehicle) was “completely restored to basal levels; also recorded: complete reversal”. The “tau phosphorylation at AT180 (Thr231)” value (tau phosphorylation; 75mg/kg I.P. p = 0.0002 vs Vehicle (50mg/kg p = 0.0005; 25mg/kg p = 0.0571)) was “significant decrease”, the “tau phosphorylation at S396” value (tau phosphorylation; 75mg/kg I.P. p = 0.0002 vs Vehicle (50mg/kg p = 0.011; 25mg/kg p = 0.8492)) was “significant decrease” and the “tau phosphorylation at AT8 (S202/T205)” value (tau phosphorylation; 75mg/kg I.P. p = 0.0066 vs Vehicle (50mg/kg p = 0.5391; 25mg/kg p>0.999)) was “significant decrease”. For the same compound, the “hypothermia induced tau phosphorylation at S422” value (tau phosphorylation; 75mg/kg I.P., one hour, p = 0.0007 vs Vehicle) was “completely restored to basal levels; also recorded: significant decrease”, the “Percent Inhibition at 1μM” value (PIP4K2C; TLVIKEVSSEDIADMHSNLSNYHQYIVK, ADP probe) was 88.8% and the “Percent Inhibition at 1μM” value (PIP4K2C; TLVIKEVSSEDIADMHSNLSNYHQYIVK, ATP probe) was 76.5%. The “Percent Inhibition at 1μM” value (PIP4K2C; VKELPTLKDMDFLNK, ATP probe) was 67.9%, the “Percent Inhibition at 1μM” value (MAP4K5; ADP probe) was 69.7% and the “Percent Inhibition at 1μM” value (MAP4K5; ATP probe) was 58.7%. For the same compound, the “Percent Inhibition at 1μM” value (TAO1, TAO3; ADP probe) was 66.8%, the “Percent Inhibition at 1μM” value (TAO1, TAO3; ATP probe) was 69.5% and the “Percent Inhibition at 1μM” value (MLK2) was 60.1%. The “Percent Inhibition at 1μM” value (PIP5K3; ADP probe) was 90.2%, the “Percent Inhibition at 1μM” value (PIP5K3; ATP probe) was 95.9% and the “Percent Inhibition at 1μM” value (CK1d, CK1e) was 55.5%.
